In US8852647B2, “Combinations of pyrimethanil and silver compounds” (Janssen Pharmaceutica, NV, priority 2007, dated 2014):
≈ marks a conversion by molar mass, not a printed value. Like-named read-outs stand apart in the source and are kept apart here.

What was measured:
Escherichia coli = assay: Poison Plate Assay (Experiment 1), Escherichia coli; conditions: for MIC-values (minimum inhibitory concentration): ppm total active ingredient, Tryptose Agar, 27° C., evaluation after one week
Aspergillus versicolor = assay: Poison Plate Assay (Experiment 1), Aspergillus versicolor; conditions: ppm total active ingredient, Glucose Agar, 22° C., evaluation after two weeks; for MIC: Aspergillus versicolor, 336 h
[1] = tested on: Streptomyces griseus (g+); assay: Poison Plate Assay (Experiment 2), Streptomyces griseus; format: cell-based; conditions: 120 h, Table 3, pyrimethanil with Microsil™, ppm total active ingredient, Tryptose Agar, 27° C., evaluation after 5 days, read-out: MIC-values (minimum inhibitory concentration)
Description: [formula] wherein: • QA is the concentration of compound A in ppm, acting alone, which produced an end point (e.g. MIC), • Qa is the concentration of compound A in ppm, in the mixture, which produced an end point (e.g. MIC), • QB is the concentration of compound B in ppm, acting alone, which produced an end point (e.g. MIC), • Qb is the concentration of compound B in ppm, in the mixture, which produced an end point (e.g. MIC). When the Synergy Index is greater than 1.0, antagonism is indicated. When the SI is equal to 1.0, additivity is indicated.
Experiment 2: Poison Plate Assay • Name of the primary compound: —pyrimethanil (I) • Name of the silver salt: —Microsil™ from Avecom (Bloemendalestraat 138, 8730 Beernem, Belgium) • Microsil™ is a suspension of colloidal silver metal particles, produced by and clustered on probiotic bacteria. The diameter of the silver particles varies between 3 to 20 nm. The oxidation state of the silver in Microsil™ is 0 (Ag^0). • Microsil™ is produced as a suspension of finely dispersed colloidal Ag^0 particles, stabilized on a biological carrier molecule, in water. The probiotic carrier exists only as a non-viable and stabilizing biocomponent. • Stock solution: 1000 ppm in DMSO • Test combinations: […]

Rhodoturula rubra = assay: Poison Plate Assay (Experiment 1), Rhodoturula rubra; conditions: for MIC-values (minimum inhibitory concentration): ppm total active ingredient, Glucose Agar, 22° C., evaluation after two weeks
[2] = Table 2, pyrimethanil with silver perchlorate
[3] = Table 1, pyrimethanil with silver nitrate

Row | Compound | MIC (Escherichia coli; Escherichia coli, 168 h, read-out: MIC-values (minimum inhibitory concentration)) [µg/mL] | MIC-values (minimum inhibitory concentration) (Escherichia coli; [2]) [ppm] | MIC (Aspergillus versicolor; read-out: MIC-values (minimum inhibitory concentration), Table 1, pyrimethanil with silver nitrate) [µg/mL] | MIC (Aspergillus versicolor; read-out: MIC-values (minimum inhibitory concentration), Table 2, pyrimethanil with silver perchlorate) [µg/mL] | MIC [1] [µg/mL] | MIC (Rhodoturula rubra; 336 h, read-out: MIC-values (minimum inhibitory concentration)) [µg/mL] | MIC-values (minimum inhibitory concentration) (Rhodoturula rubra; [2]) [ppm] | MIC-values (minimum inhibitory concentration) (Escherichia coli; [3]) [ppm] | MIC-values (minimum inhibitory concentration) (Aspergillus versicolor; [3]) [ppm] | MIC-values (minimum inhibitory concentration) (Rhodoturula rubra; [3]) [ppm]
1 | Cc1cc(C)nc(Nc2ccccc2)n1 [pyrimethanil, 4,6-dimethyl-N-phenyl-2-pyrimidinamine] | 667 (≈ 3350 µM) | 666.67 | 667 (≈ 3350 µM) | 375 (≈ 1880 µM) | 66.7 | 281 (≈ 1410 µM) | 281.25 |  |  | 
2 | O=[N+]([O-])[O-].[Ag+] [silver nitrate] |  |  |  |  |  |  |  | 66.67 | 118.65 | 118.65
